Experiments:
[1] = target: L. mexicana CPB2.8∆CTE (Leishmania mexicana, UniProt P36400); test: CPB2.8∆CTE fluorescence endpoint assay with Z-F-R-AMC substrate; type: biochemical
Procedure: (§1) The activities of CPB2.8∆CTE and BtCatB were measured in a homogeneous fluorescence endpoint assay using Z-F-R-AMC as substrate, modified from published methods. The fluorophore AMC (7-amino-4-methylcoumarin) is released by active cysteine protease, and can be detected at 360 nm excitation and 465 nm emission. The assay was optimized for automated high throughput screening on a Biomek FX workstation (Beckman Coulter). All assays were carried out in black 384 well plates at room temperature (22°C). Each plate contained 24 controls in the 23rd and 24th rows of the plate, including 8 positive controls and 8 blanks (without enzyme) as well as 8 inhibitor controls. E-64 was used as standard inhibitor. […] Test compounds available as 10 mM stock solutions in DMSO were diluted further in DMSO, except for the last 1:10 step, which was done in H2O to lower the DMSO concentration in the assay. Final concentrations of the test compounds from 30 µM to 0.3 nM were used. For the L. mexicana CPB2.8∆CTE assay, 5 µl test compound or 5 µl DMSO in acetate buffer (10% DMSO) was added to each well of the microtiter plate. Subsequently, 25 µl of a premix containing sodium acetate buffer (final concentration [f.c.] 100 mM), titriplex II (f.c. 1 mM) (Merck, Darmstadt, Germany), DTT (f.c. 10 mM) (Carl Roth GmbH, Karlsruhe, Germany), triton (f.c. 0.01%) (Merck, Darmstadt, Germany), BSA (f.c. 0.1 mg/ml) (PAA Laboratories GmbH, Pasching, Austria) and enzyme was added to each well, except the wells for the blanks, which include the premix without enzyme. After an incubation time of 10 min, the reaction was started by addition of substrate (20 µl Z-F-R-AMC; f.c. 20 µM). The reaction was stopped after 35 min incubation at room temperature by addition of 10 µl inhibitor E64 (f.c. 16.7 µM) and enzyme activity was measured with a SpectraFluorPlus (Tecan Inc., Durham, NC) plate reader using excitation at 360 nm with emission at 465 nm. The assay procedure for BtCatB was the same as for the CPB2.8∆CTE assay with the exceptions of the final concentration of the substrate Z-F-R-AMC (100 µM) and the stop of the assay using a stop buffer containing sodium acetate and sodium chlorine acetate (f.c. 41.7 mM each).
(§2) The percentage enzyme activity was calculated using the formula (V-B)/(C-B) x 100%, with V being the absorbance of the assay containing the test compound, B being the absorbance of the negative control (‘blank’) and C being the absorbance of the positive control. In primary screening, all compounds of the screening library were tested at 10 µM in double point measurements. Z´ factors, which describe the quality of an assay, were in the range of 0.85-0.99. The Z´ factor is defined in terms of four parameters: the means and standard deviations of both the positive (p) and negative (n) controls: Z´= 1-((3 x (STDEVp + STDEVn))/(MEANp - MEANn)).
(§3) The theoretical hit limit for a HTS primary screen can be calculated as MEAN + 3 x STDEV of inhibitions from diverse compounds. […] In our case, based on a preliminary screen of >3000 diverse compounds, the hit limit was determined between 12.8% and 22.9% inhibition. For practical reasons, screening hit limits are normally set above this limit, aiming at approximately 0.2-0.4% hits from a diverse library. Therefore, 50% inhibition at 10 µM compound concentration compared to the positive controls was considered a hit compound and were subjected to hit verification (IC50 determination from liquid compound stock) using CPB2.8∆CTE and BtCatB to get the activity profile of the compounds. Hit confirmation (IC50 determination from freshly dissolved solid compound stock) was performed for all compounds with an IC50 ≤ 30 µM on CPB2.8∆CTE. Compound concentrations used for IC50 determinations were as follows: 30 µM, 10 µM, 3 µM, 1 µM, 0.3 µM, 0.1 µM, 0.03 µM, 0.01 µM, 0.003 µM, 0.001 µM, and 0.0003 µM. […]

[2] = target: T1, bovine cathepsin B (BtCatB) (Bos taurus, UniProt P07688); test: BtCatB counter assay, fluorescence endpoint with Z-F-R-AMC substrate; type: biochemical; details: mean ± SD, three independent experiments, substrate Z-F-R-AMC 100 µM
T1 construct: purchased Sigma-Aldrich Inc., St. Louis, MO, USA; host or cells: bovine spleen
Procedure: The activities of CPB2.8∆CTE and BtCatB were measured in a homogeneous fluorescence endpoint assay using Z-F-R-AMC as substrate, modified from published methods. The fluorophore AMC (7-amino-4-methylcoumarin) is released by active cysteine protease, and can be detected at 360 nm excitation and 465 nm emission. The assay was optimized for automated high throughput screening on a Biomek FX workstation (Beckman Coulter). All assays were carried out in black 384 well plates at room temperature (22°C). Each plate contained 24 controls in the 23rd and 24th rows of the plate, including 8 positive controls and 8 blanks (without enzyme) as well as 8 inhibitor controls. E-64 was used as standard inhibitor. […] Test compounds available as 10 mM stock solutions in DMSO were diluted further in DMSO, except for the last 1:10 step, which was done in H2O to lower the DMSO concentration in the assay. Final concentrations of the test compounds from 30 µM to 0.3 nM were used. For the L. mexicana CPB2.8∆CTE assay, 5 µl test compound or 5 µl DMSO in acetate buffer (10% DMSO) was added to each well of the microtiter plate. […] The reaction was stopped after 35 min incubation at room temperature by addition of 10 µl inhibitor E64 (f.c. 16.7 µM) and enzyme activity was measured with a SpectraFluorPlus (Tecan Inc., Durham, NC) plate reader using excitation at 360 nm with emission at 465 nm. […]
The percentage enzyme activity was calculated using the formula (V-B)/(C-B) x 100%, with V being the absorbance of the assay containing the test compound, B being the absorbance of the negative control (‘blank’) and C being the absorbance of the positive control. […]
The theoretical hit limit for a HTS primary screen can be calculated as MEAN + 3 x STDEV of inhibitions from diverse compounds. […]

[3] = test system: L. mexicana CPB2.8∆CTE; test: CPB2.8∆CTE fluorescence endpoint assay with Z-F-R-AMC substrate; type: biochemical, Leishmania mexicana; details: ratio of IC50 on CPB2.8∆CTE to IC50 on BtCatB
Procedure: as §1, §2, §3

Sequence of L. mexicana CPB2.8∆CTE (Leishmania mexicana, UniProt P36400) (P36400 126-343): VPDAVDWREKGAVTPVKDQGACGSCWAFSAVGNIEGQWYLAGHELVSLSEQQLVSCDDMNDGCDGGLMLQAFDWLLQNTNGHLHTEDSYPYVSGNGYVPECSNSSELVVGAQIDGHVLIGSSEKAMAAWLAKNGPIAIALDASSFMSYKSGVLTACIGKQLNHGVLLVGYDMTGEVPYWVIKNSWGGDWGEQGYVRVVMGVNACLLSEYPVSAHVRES

| SMILES | inhibition of protease activity ([1]; final concentration 10 µM, standard inhibitor control of the CPB2.8∆CTE and BtCatB assays) | IC50 [2] [nM] | selectivity ratio (CPB2.8∆CTE/BtCatB) [3] | IC50 [1] [nM] | Ki [1] [nM] |
| --- | --- | --- | --- | --- | --- |
| CC(C)C[C@H](NC(=O)[C@H]1O[C@@H]1C(=O)O)C(=O)NCCCCNC(=N)N (relative stereo) [Compound E-64, 1-[N-[(L-3-trans-carboxyoxirane-2-carbonyl)-L-leucyl]amino]-4-guanidinobutane, reference compound] | complete inhibition | – | – | – | – |
| NC(=O)N/N=c1\oc2ccccc2cc1-c1nc2ccccc2[nH]1 [CP229988, 3-[(1H-benzimidazol-2-yl)-2H-1-benzopyran-2-ylidene]-2-carbaldehyde semicarbazone] | – | > 30000 | < 0.00033 | 10 ± 3 | 5 ± 2 |
| COc1ncccc1Nc1nc(C#N)nc(NC2CCCCC2)n1 [CP241026, 4-(cyclohexylamino)-6-[(2-methoxy-3-pyridinyl)amino]-1,3,5-triazine-2-carbonitrile] | – | 13800 ± 4500 | – | 1100 ± 150 | 570 ± 80 |
| NC(=S)NN=Cc1c(-c2ccccc2)[nH]c2ccccc12 [CP247128, 2-phenyl-1H-indole-3-carbaldehyde thiosemicarbazone] | – | – | – | 60 ± 10 | – |
| COc1ccc(-c2ccc(/C=N/NC(N)=S)o2)cc1 [CP247129, 5-(4-methoxy-phenyl)-2-furanyl-2-carbaldehyde thiosemicarbazone] | – | > 30000 | – | 70 ± 40 | 40 ± 20 |

Reference: paper PMC3797739, “Identification of Semicarbazones, Thiosemicarbazones and Triazine Nitriles as Inhibitors of Leishmania mexicana Cysteine Protease CPB” (PLoS ONE, 2013)
